Data on 13 molecules can be found in PubChem BioAssay AID403 (SGCOxCompounds, 2006).

The term inhibition denotes how much of the control response was suppressed.

The test has as its target Receptor-type tyrosine-protein phosphatase eta (Homo sapiens) (UniProt Q12913). The test can be described thus: inhibition of receptor phosphatase PTPRJ activity – biochemical, human, DiFMUP fluorescence (AID 403). Conditions: recombinant PTPRJ, 25 C, at 50 µM, enzyme 0.05 ng/mL, DTT 5 mM, hits give high values.

Chain of Receptor-type tyrosine-protein phosphatase eta (Homo sapiens) (Q12913 whole entry, looked up): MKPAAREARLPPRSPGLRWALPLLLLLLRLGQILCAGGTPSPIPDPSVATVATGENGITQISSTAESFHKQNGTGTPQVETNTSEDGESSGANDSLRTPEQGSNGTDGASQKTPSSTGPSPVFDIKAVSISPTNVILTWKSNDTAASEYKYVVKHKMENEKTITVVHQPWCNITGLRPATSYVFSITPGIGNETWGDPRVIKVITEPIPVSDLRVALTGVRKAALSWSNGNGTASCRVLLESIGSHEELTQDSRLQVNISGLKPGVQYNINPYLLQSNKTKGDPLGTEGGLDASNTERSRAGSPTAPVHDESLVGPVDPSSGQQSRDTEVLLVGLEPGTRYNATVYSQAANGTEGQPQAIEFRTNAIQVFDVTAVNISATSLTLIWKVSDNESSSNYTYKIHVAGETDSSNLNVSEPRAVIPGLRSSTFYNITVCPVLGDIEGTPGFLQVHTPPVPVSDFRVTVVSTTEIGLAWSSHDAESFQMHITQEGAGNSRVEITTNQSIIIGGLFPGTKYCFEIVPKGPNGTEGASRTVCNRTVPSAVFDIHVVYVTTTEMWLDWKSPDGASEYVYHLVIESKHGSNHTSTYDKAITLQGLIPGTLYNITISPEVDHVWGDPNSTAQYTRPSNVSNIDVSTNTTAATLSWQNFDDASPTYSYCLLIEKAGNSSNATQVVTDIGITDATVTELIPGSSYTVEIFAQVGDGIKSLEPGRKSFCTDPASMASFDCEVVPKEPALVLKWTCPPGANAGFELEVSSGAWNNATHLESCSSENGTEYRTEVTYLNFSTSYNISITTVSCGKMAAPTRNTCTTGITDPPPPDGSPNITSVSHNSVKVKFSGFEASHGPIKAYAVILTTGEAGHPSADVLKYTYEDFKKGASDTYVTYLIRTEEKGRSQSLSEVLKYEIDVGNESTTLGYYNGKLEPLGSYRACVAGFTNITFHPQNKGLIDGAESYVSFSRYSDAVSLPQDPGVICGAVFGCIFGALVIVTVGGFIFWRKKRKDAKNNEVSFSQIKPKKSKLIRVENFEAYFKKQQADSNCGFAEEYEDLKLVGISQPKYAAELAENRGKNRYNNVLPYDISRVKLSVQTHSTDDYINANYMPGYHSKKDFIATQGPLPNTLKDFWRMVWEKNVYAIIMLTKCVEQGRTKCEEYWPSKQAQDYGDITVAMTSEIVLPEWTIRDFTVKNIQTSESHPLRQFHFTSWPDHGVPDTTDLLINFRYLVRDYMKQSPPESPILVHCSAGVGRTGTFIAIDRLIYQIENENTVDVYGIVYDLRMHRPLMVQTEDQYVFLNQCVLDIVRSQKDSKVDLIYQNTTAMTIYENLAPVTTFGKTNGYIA

Take `Cc1c(Cl)c(C)c([N+](=O)[O-])c(O)c1C=Nc1ccc(O)cc1C(=O)O`: the inhibition was 95%.
For `O=C(O)c1ccc(O)cn1.OO.[O]=[V]`, the inhibition was 92%.
For the molecule `O=C(O)c1ccc(O)c(C=Nc2ccc3oc(-c4ccccc4)nc3c2)c1`, the inhibition is 52%.
As to `COc1ccc(-c2nc3cc(N=Cc4cc(C(=O)O)ccc4O)ccc3o2)cc1`, the inhibition is 67%.
For the molecule `Cc1ccc(N=Cc2cc(C(=O)O)ccc2O)c(O)c1`, the inhibition was 55%.
For the molecule `CN(N=O)c1ccc(O)c(O)c1`, the inhibition is 97%.
As to `OO.OO.[K+].[O]=[V].c1ccc(-c2ccccn2)nc1`, the inhibition was 98%.
As to `CC(C)(c1ccc(NS(=O)(=O)C(F)(F)F)cc1)c1ccc(C(C)(C)c2ccc(NS(=O)(=O)C(F)(F)F)cc2)cc1`, the inhibition is 66%.
As for `[NH-]CO.[NH-]CO.[NH-]CO.[NH-]CO.[O]=[V][O][V]=[O]`, the figure is 100%.
For `O=C([O-])c1ccccn1.OO.OO.[K+].[K+].[O]=[V]`, the inhibition is 100%.
For `O=C1NC(=S)S/C1=C\C=C\c1ccc([N+](=O)[O-])o1`, the inhibition was 50%.
Turning to `O=C(O)c1ccc([O-])cn1.OO.OO.[K+].[K+].[O]=[V]`, the inhibition is 99%.
For `O=C(O)c1ccc(O)c(N2C(=O)Nc3ccccc3N2O)c1`, the inhibition is 82%.
